Broadly, the IC50 is the point on the concentration scale where inhibition reaches its midpoint. A word on the melting point: it is the temperature of the solid-liquid transition. One may read the pIC50 as the negative decadic logarithm of the IC50, by convention in mol/L.

Data set [1] deals with LN229 (human glioblastoma). As to the kind of experiment: Proliferation assay (MTT), LN229 cells. In kind it is cell-based. The settings on record: LN-229, 72 h, 10% FBS; for IC50: read-out: IC50 (μM) tested in LN229 cells (Table 2). The method, then: (§1) Cells were maintained in monolayer culture with the corresponding media, supplemented with 5% fetal bovine serum (FBS) previously inactivated with heat, 2 mM glutamine and […] gentamicine.
(§2) The cells were treated for 72 hours in the presence of FBS 10% with different doses of the compounds in 96 wells at a 2500 cell/well density. The cell growth was estimated by MTT test, for which to the cell monolayers was added MTT, incubated and resuspended in DMSO. Finally, the number of cells was estimated by measuring the absorbance values at 570 nm.
(§3) Compound (65) as a representative example of Rac1 inhibitor compounds according to the present invention was tested in cell proliferation assays performed with following cancer cell lines F3II (murine mammary carcinoma), 3LL (murine lung carcinoma), LN229 (human glioblastoma), MCF7 (human mammary carcinoma), H125 (human lung carcinoma), PC3 (human prostate adenocarcinoma) and MDA-MB-231 (human mammary carcinoma).
The cells were trated for 72 hours in the presence of FBS 10% with different doses of the compounds in 96 wells at a 2500 cell/well density. The cell growth was estimated by MTT test, for which to the cell monolayers was added MTT, incubated and resuspended in DMSO. Finally, the number of cells was estimated by measuring the absorbance values at 570 nm.

For data set [2], the system named is F3II mammary carcinoma cells. As to the kind of experiment: Antimetastatic effect, metastatic lung colonization by F3II cells in mice. In kind it is in vivo. The following applies: 25 mg/kg/day i.p., days 0 to 21, F3II cells i.v., BALB/c mice, FIG. 9. The method, then:
Specific pathogen-free female BALB/c inbred mice from UNLP (Buenos Aires, Argentina), with an age of 8-10 weeks and a average weight of 20 g, were used. They were housed in plastic cages under standard conditions and had access to rodent chow and water ad libitum. On the designated day 0 of the experiment, F3II mammary carcinoma cells were injected into the lateral tail vein of unanesthetized mice at a concentration of 2×10^5 viable cells/0.3 ml DMEM/mice. At day 21, animals were sacrificed by cervical dislocation and necropsied. To investigate the presence of lung metastasis, lungs were removed, fixed in Bouin's solution and the number of surface nodules was determined under a dissecting microscope.
(§4) To study the effect of compound (25) on metastatic lung colonization, mice were injected i.p at daily doses of 25 mg/kg body weight from days 0 to 21.

A further data set has as its target T1, Rac1 (Homo sapiens, UniProt P63000).
T1 construct: endogenous in cells; host or cells: LN229 (human glioblastoma)
As to the kind of experiment: Pull-Down assay of intracellular active Rac levels (Rac-GTP) in LN229 cells. Type of data set: cell-based. The settings on record: 10 μM, EGF 100 ng/ml, FIG. 3. The procedure: This assay consists in the determination of inhibition power of the compounds of the invention over the intracellular active Rac1 levels (Rac-GTP). For determining the levels of Rac-GTP, the “Pull-Down” assay was used, which is based in the conformation bond of Rac-GTP to the p21 domain of PAK1 protein, which is the direct effector of Rac-GTP (Wanf H. et al.; J. Biol. Che. 2002, 277: 4541-4550).
LN229 cells (human glioblastoma) were seeded in 6-well cell culture plaques and were kept in absence of FBS for 48 hours (starvation). Afterwards, they were treated with compounds (25) and (65) and they were stimulated for 15 minutes with EGF (100 ng/ml), washed with phosphate buffered saline (PBS) at low temperature and lysated in a buffer containing 8 μg of the fusion protein GST-PBD, […] Tris-HCl, pH 7.5, […] DTT, 5 mM MgCl2, 150 mM NaCl, 0.5% NP-40, 5 mM β-glicerophosphate and protease inhibitors (5 μg/ml 4-(2-aminoethyl)bencenesulfonyl fluoride, 5 μg (ml leupeptin, 5 μg/ml aprotinin and 1 μg/ml pepstatin A). The lysates were centrifuged at 14,000×g (4° C., 10 min) and then incubated with Glutation-Agarose Beads (GAB, Amersham Pharmacia) previously fitted with GST-Pak at 4° C. for 1 hour. After washing, the GABs were boiled for 5 minutes in loading buffer. […] The total Rac levels were analyzed in a similar way from aliquots taken from the cell lysate.

In data set [3] the test system is F3II (murine mammary carcinoma). In words: Proliferation assay (MTT), F3II cells. The settings on record: Mus musculus, 72 h, 10% FBS. Type of data set: cell-based. The procedure:
as §1, §2, §3

Data set [4] has as its system MDA-MB-231 (human mammary carcinoma). In words: Proliferation assay (MTT), MDA-MB-231 cells. Type of data set: cell-based. The settings on record: 72 h, 10% FBS. The method, then:
as §1, §2, §3

Data set [5] can be described thus: Tolerability and animal weight in mice. Type of data set: in vivo. The settings on record: adult female BALB/c mice, 25 mg/kg/day i.p. The procedure:
as §4

For data set [6], the system named is MCF7 (human mammary carcinoma). As to the kind of experiment: Proliferation assay (MTT), MCF7 cells. Type of data set: cell-based. The settings on record: 72 h, 10% FBS, average of three experiments. The method, then:
as §1, §2, §3

A further data set concerns the target T2, Rac-Tiam complex (Homo sapiens, UniProt P63000).
T2 construct: GST
As to the kind of experiment: Precipitation affinity of Tiam with recombinant GST-Rac (Western Blot anti Tiam1). In kind it is binding. The following applies: Western Blot anti Tiam1 vs. control, FIG. 2. The method, then:
Compounds (65) and (25) were tested in order to determine its inhibition power over the interaction Rac-Tiam. Thus, the precipitation affinity of Tiam with the recombinant protein GST-Rac was evaluated in presence of compound (65).
For orientation: Immunoblotting shows a protein as a band on a membrane.

Data set [7] has as its system PC3 (human prostate adenocarcinoma). As to the kind of experiment: Proliferation assay (MTT), PC3 cells. Type of data set: cell-based. The settings on record: PC-3, 72 h, 10% FBS, average of three experiments. The method, then:
as §1, §2, §3

The subject of data set [8] is LN229 human glioblastoma cells. As to the kind of experiment: Trans-well migration assay. Type of data set: cell-based. The following applies: 10 μM, 50 μM and 100 μM, 24 hours, FIG. 6. The procedure:
Cell motility is a key process in the invasion and tumor metastasis processes and it is closely regulated by the Rho-GTPases family, particularly by Rac. This assay consists in the determination of the antimigration effect of compound (65) on LN229 human glioblastoma cells.
The cell migration in vitro was measured by the trans-well migration assay, wherein LN229 cells previously treated with different concentrations (10 μM, 50 μM and 100 μM) of compound (65) and serum deprived were placed on the upper layer of a cell permeable membrane of a trans-well plaque. Following an incubation perior of 24 hours, the cells migrated through the 8 μm pores of the membrane to the lower layer.

The subject of data set [9] is 3LL (murine lung carcinoma). In words: Proliferation assay (MTT), 3LL cells. In kind it is cell-based. The following applies: Mus musculus, 72 h, 10% FBS, average of three experiments. The method, then:
as §1, §2, §3

A further data set has as its system LN229 cells. In words: Cell cycle effect by flow cytometry. Type of data set: cell-based, human. The method, then:
The effect of compound (65) on the cell cycle was studied by flow citometry. It is known that Rac1 GTPase is related with transcription of molecules such as cyclin D1, which are required to progress from G1 phase to S phase. Inhibition of Rac1 induces cell arrest in G0-G1 phase.
LN229 cells synchronized in G0-G1 phase and stimulated for 24 hours with FBS were treated with compound (65).

For data set [10], the system named is LN229 human glioblastoma cells. As to the kind of experiment: Polymerization of actin filaments by immunofluorescence in LN229 cells. Type of data set: cell-based. The settings on record: LN229 starved 24 h, treated 1 hour, EGF stimulated, FIG. 5. The procedure: The effect of compound (65) over the polymerization of actin filaments was evaluated by immunofluorescence with conjugated faloidine with the fluorochrome AlexaFluor (Invitrogen). LN229 human glioblastoma cells were starvated for 24 hours, treated with compound (65) for 1 hour, and stimulated with EGF. […] An accurate sign of cellular boundaries is observed in all cells due to the cortical actin marking.

In data set [11] the test system is H125 (human lung carcinoma). In words: Proliferation assay (MTT), H125 cells. Type of data set: cell-based. The settings on record: NCI-H125, 72 h, 10% FBS, average of three experiments. The method, then:
as §1, §2, §3

Molecules are shown by their SMILES. pIC50: −log10 of the molar value. Where two headings read alike, the source gives them in different places.

Compound `N=C(Nc1ccccc1)Nc1ccccc1C(F)(F)F` [(27), N-phenyl-N′-[2-(trifluoromethyl)phenyl]guanidine] gave a melting point of 108 to 109 °C. Besides, the IC50 in data set [1] stood at 211 µM.
Turning to `N=C(Nc1cccc([N+](=O)[O-])c1)Nc1ccccc1C(F)(F)F` [(41), N-(3-nitrophenyl)-N′-[2-(trifluoromethyl)phenyl]guanidine], in [1], the IC50 turned out to be 88 µM.
`Cc1ccccc1NC(=N)Nc1ccccc1C(F)(F)F` [(64), N-(2-methylphenyl)-N′-[2-(trifluoromethyl)phenyl]guanidine] gave a melting point of 129 °C. In addition, in data set [1], the IC50 came to 175 µM.
Regarding `Cc1cc(C)cc(NC(=N)Nc2ccccc2C(F)(F)F)c1` [Compound (25), N-(3,5-dimethylphenyl)-N′-[2-(trifluoromethyl)phenyl]guanidine], the IC50 in [1] turned out to be 73 µM. The “Reduction of the formation of metastatic lung colonies” value in data set [2] is “about 35%”. For the same compound, on Rac1, the “Effect over the intracellular active Rac levels (Rac-GTP)” value is on record as “inhibitory effect”. Further, in [3] (read-out: IC50 values, F3II (Table 3)), the pIC50 is 4.44. Also, the pIC50 in data set [4] (read-out: IC50 values, MDA-MB-231 (Table 3)) is 4.40. Further, in [5], the “Changes in animal weight compared to the control group” value was “no significant changes in animal weight” and the Tolerability entry is “well tolerated”.
Turning to `Cc1cc(C)nc(NC(=N)Nc2ccccc2C(F)(F)F)n1` [Compound (65), N-[4,6-bis(methyl)pyrimidin-2-yl]-N′-[2-(trifluoromethyl)phenyl]guanidine], the pIC50 in data set [6] was 4.36; in data set [1] (average of three experiments, read-out: IC50 values, LN229), 4.14; in data set [7] it was 3.86; in data set [9], 4.17; in [3] (average of three experiments, read-out: IC50 values, F3II) it was 4.21; in data set [4] (average of three experiments, read-out: IC50 values, MDA-MB-231), 4.32. In addition, in [11], the pIC50 is 3.90. On Rac-Tiam complex, the “Effect over Rac-Tiam complex (Rac interaction with the activator)” value is “decrease of Rac interaction with the activator”. Moreover, the Cell migration entry in [8] is reported as “significantly decreased the cell migration in a dose dependent manner”. Also, the “Cell population in G0-G1 phase” value in the data set with LN229 cells (50 μM, LN229 synchronized in G0-G1, stimulated 24 hours with FBS, controls 25%) is listed as 60%. Also, in the data set on LN229 cells (LN229 cells, FIG. 7), the Cell cycle arrest entry was “arrests tumoral cells in G0-G1 phase in a dose dependent manner”. Also, the “Effect over the intracellular active Rac levels (Rac-GTP)” value on Rac1 is reported as “inhibitory effect”. In addition, the “Intracellular fibrillar actin levels” value in [10] is on record as “decreasing of intracellular fibrilar actin levels”.

For the origin of these results see patent publication US9745257B2, “Phenyl-guanidine derivatives” (Universidad Nacional de Quilmes, priority 2011, dated 2017).
